Reference: publication PMC8225959, “Clickable Radiocomplexes With Trivalent Radiometals for Cancer Theranostics: In vitro and in vivo Studies” (Frontiers in Medicine, 2021)

Experiments:
PC3 xenografts = test: Ex vivo biodistribution of [90Y]Y-DOTA-Tz in mice bearing PC3 xenografts; conditions: PC3 xenograft mice
Source text: Currently, we are investigating the application of click chemistry using biomolecules that target prostate cancer. Therefore, since a non-specific tumor uptake might interfere with the specificity of the pre-targeting approach, we have performed in vivo studies of [^90Y]Y-DOTA-Tz in mice bearing PC3 xenografts to assess the possible non-specific uptake of the clickable radiocomplex in the tumor and in the tumor microenvironment. […] This type of optical imaging offers a high spatial resolution, and despite a limited penetration depth allows to image ^90Y, which is not easily feasible using PET or SPECT imaging ([32]). […] At the selected time points the majority of the compound was retrieved in the urine, with 88 and 96% of the I.D. excreted 1 and 2 h post-injection, respectively. page 9: from whole animal body. Blood samples were taken by cardiac puncture at sacrifice. […] The animals were kept under […] volume of approximate 390 ± 190 mm3. […] […] carried out on groups of 8 mice (n = 4). […] The animals were weighed and dissected.

[1] = Stability of the [90Y]Y-DOTA-Tz preparation (HPLC, radiolysis); assay type: physicochemical
Experimental: The radiolabelling with ^90Y was performed following the same procedure previously optimized for ^111In, using a buffer of 0.1 M ammonium acetate at pH 7 and heating the mixture at 80°C for 15 min. The DOTA-Tz chelator was added to a final concentration of 400–500 μM to yield [^90Y]Y-DOTA-Tz with specific activities up to 3.3 MBq/nmol and radiochemical yields above 90% (Supplementary Figure 4A). The radiocomplex [^90Y]Y-DOTA-Tz was synthesized with ~130 MBq of [^90Y]YCl3 and obtained in very high specific activity, after separation from the non-labeled DOTA-Tz chelator. The radiocomplex was recovered into phosphate buffer at pH 8 to neutralize the residual TFA from the HPLC mobile phase before its use in future biological studies. […] In order to stabilize the [^90Y]Y-DOTA-Tz preparation, a suitable ratio between the volume of phosphate buffer solution at pH 8 to neutralize the TFA from the HPLC purification and ascorbic acid as a radiolytic stabilizer had to be optimized. In initial experiments, the use of ascorbic acid as a buffer in the radiolabelling procedure led to the degradation of the tetrazine moiety. Similar effect was seen when the ascorbic acid solution (50 mg/mL) was added to the solution after labeling. […]

PC3 tumor = test: Cerenkov luminescence imaging of PC3 tumor-bearing mice pretargeted with TCO-PEG4-AR then [90Y]Y-DOTA-Tz; assay type: in vivo; conditions: 1 nmol TCO-PEG4-AR, radiocomplex after 4 h
Experimental: The Cerenkov Luminescence Imaging of the prostate cancer PC3 tumor-bearing mice was carried out at different time points (15 min, 1 and 2 h) after intravenous injection of [^90Y]Y-DOTA-Tz. […] Thereafter, the CLI imaging of the PC3 tumor-bearing mice was carried out at different time points (15 min, 1 h). The images were obtained using PhotonIMAGER™ (BioSpace Lab).

[2] = 1 h p.i., listed as [^90Y]Y-DOTA-Tz
[3] = 2 h p.i., listed as [^90Y]Y-DOTA-Tz

O=C([O-])CN1CCN(CC(=O)[O-])CCN(CC(=O)NCc2ccc(-c3nncnn3)cc2)CCN(CC(=O)[O-])CC1.[90Y+3] [[90Y]Y-DOTA-Tz]
Biodistribution: Blood (PC3 xenografts; 1 h p.i.): 1.59 ± 0.62 % I.D./g
Biodistribution: Bone (PC3 xenografts; 1 h p.i.): 1.04 ± 0.25 % I.D./g
Biodistribution: Intestine (PC3 xenografts; 1 h p.i.): 0.41 ± 0.2 % I.D./g
Biodistribution: Kidneys (PC3 xenografts; 1 h p.i.): 3.65 ± 0.49 % I.D./g
Biodistribution: Liver (PC3 xenografts; 1 h p.i.): 0.76 ± 0.07 % I.D./g
Biodistribution: Lung (PC3 xenografts; 1 h p.i.): 1.24 ± 0.32 % I.D./g
Biodistribution: Muscle (PC3 xenografts; 1 h p.i.): 0.5 ± 0.2 % I.D./g
Biodistribution: Pancreas (PC3 xenografts; 1 h p.i.): 0.7 ± 0.32 % I.D./g
Biodistribution: Salivary Gland (PC3 xenografts; 1 h p.i.): 0.68 ± 0.12 % I.D./g
Biodistribution: Spleen (PC3 xenografts; 1 h p.i.): 1 ± 0.27 % I.D./g
Biodistribution: Stomach (PC3 xenografts; 1 h p.i.): 0.65 ± 0.33 % I.D./g
Biodistribution: Tumour (PC3 xenografts; 1 h p.i.): 1.0 ± 0.4 % I.D./g
Biodistribution: Blood (PC3 xenografts; [2]): 1.59 % I.D./g
Biodistribution: Kidneys (PC3 xenografts; [2]): 3.6 % I.D./g
Biodistribution: Blood (PC3 xenografts; 2 h p.i.): 0.22 ± 0.01 % I.D./g
Biodistribution: Bone (PC3 xenografts; 2 h p.i.): 0.54 ± 0.04 % I.D./g
Biodistribution: Intestine (PC3 xenografts; 2 h p.i.): 0.17 ± 0.05 % I.D./g
Biodistribution: Kidneys (PC3 xenografts; 2 h p.i.): 2.54 ± 0.71 % I.D./g
Biodistribution: Liver (PC3 xenografts; 2 h p.i.): 0.49 ± 0.15 % I.D./g
Biodistribution: Lung (PC3 xenografts; 2 h p.i.): 0.31 ± 0.04 % I.D./g
Biodistribution: Muscle (PC3 xenografts; 2 h p.i.): 0.15 ± 0.01 % I.D./g
Biodistribution: Pancreas (PC3 xenografts; 2 h p.i.): 0.27 ± 0.12 % I.D./g
Biodistribution: Salivary Gland (PC3 xenografts; 2 h p.i.): 0.17 ± 0.02 % I.D./g
Biodistribution: Spleen (PC3 xenografts; 2 h p.i.): 0.33 ± 0.16 % I.D./g
Biodistribution: Stomach (PC3 xenografts; 2 h p.i.): 0.23 ± 0.08 % I.D./g
Biodistribution: Tumour (PC3 xenografts; 2 h p.i.): 0.37 ± 0.17 % I.D./g
Biodistribution: Blood (PC3 xenografts; [3]): 0.22 % I.D./g
Biodistribution: Kidneys (PC3 xenografts; [3]): 2.5 % I.D./g
Biodistribution: Tumour (PC3 xenografts; [3]): 0.37 % I.D./g
in vitro stability of the preparation ([1]; 3 μL ascorbic acid (50 mg/mL) and 147 μL phosphate buffer pH 8, up to 20 h after the radiolabelling): excellent in vitro stability
stability of the preparation ([1]; recovered into phosphate buffer pH 8, no stabilizer, after 2 h at room temperature): high degradation
Cerenkov imaging: tumor uptake (PC3 tumor; images at 15 min p.i.): some tumor uptake
Cerenkov imaging: activity localization (PC3 tumor; images at 1 h after the injection): majority of the activity localized in the kidneys
